Measurements from US20090304674A1, “METHODS FOR TREATING DISEASE BY REGULATING CLL CELL SURVIVAL” (priority 2005, published 2009).
Entries after “also recorded” stand apart in the source; their conditions may differ.

How the values were obtained:
Assay type in all cases: cell-based, human
[1] = tested on: AKT in CLL B cells; experiment: Immunoblot of AKT (Ser473) phosphorylation in CLL B cells; conditions: 3 or 10 minutes; SDF-1α 200 ng/ml, rhBAFF 50 ng/ml
Protocol: (§1) Cell lysates were prepared with RIPA buffer (10 mM Tris (pH 7.4), 150 mM NaCl, 1% Triton x 100, 1% deoxycholate, 0.1% SDS, 5 mM EDTA), containing 1 mM PMSF, 0.28 TIU/ml aprotinin, 50 μg/ml leupeptin, 1 mM benzamidine, 0.7 μg/ml pepstatin. Lysates were normalized for total protein (20 μg), subjected to SDS-PAGE (4-15% gradient gels, Bio-Rad, Hercules, Calif.) and immunoblot assay. We incubated the blots with secondary antibodies that were conjugated with horseradish peroxidase. Blots then were prepared for enhanced chemiluminescence (ECL) detection system (Amersham, Little Chalfont, Buckinghamshire, UK) and subsequent autoradiography with Super RX film (Fuji, Tokyo, Japan). The mouse mAb against APRIL (APRIL8) was from Alexis Biochemicals. The mouse mAb against inhibitor of kappa B-α (IκκBα was from Imgenex (San Diego, Calif.). The antibodies against anti-phosho-MAP kinase Erk1/2 and anti-MAP kinase Erk1/2-CT were purchased from Upstate Biotechnology. Antibodies against AKT or phospho-AKT (Ser473) were from Cell Signaling (Beverly, Mass.). Rabbit polyclonal antibodies (Mcl-1, Bcl-2, and Bax) were raised against synthetic peptides.21 Also primary antibodies included β-actin (Sigma Immunochemicals, St Louis, Mo.). Anti-p52 and anti-p65 antibodies were purchased from Upstate Biotechnology.

[2] = tested on: canonical NF-κB1 pathway in CLL B cells; experiment: Immunoblot of canonical NF-κB1 pathway activation (IκBα degradation/phosphorylation, p65 nuclear translocation) in CLL B cells; conditions: concentrations that promote CLL cell survival; rhBAFF 50 ng/ml, rhAPRIL 500 ng/ml
Protocol: as §1
For fractionation experiments, cells were collected by centrifugation and washed with PBS. The cell pellet containing 5×10^6 cells was suspended in 100 μl of hypotonic buffer (50 mM Tris (pH7.4), 5 mM EDTA, 10 mM NaCl, 0.05% NP-40, 1 mM PMSF, 10 μg/ml Aprotinin, 10 μg/ml Leupeptin, 10 μg/ml Pepstatin, 10 mM β-Glycerophosphate, 1 mM Na-Vanadate, 1 mM NaF). After 10 minutes the lysate was spun and the supernatant was collected as cytoplasmic lysates. The pellet was washed 5 times in hypotonic buffer containing 0.1% NP-40. The remaining pellet was suspended in 100 μl RIPA buffer containing protease and phosphatase inhibitors. After an appropriate amount of 3× sample buffer (200 mM Tris (pH 6.8), 30 mM EDTA, 30% Glycerol, 6% SDS) was added, the sample was boiled for 10 minutes, spun for 10 minutes and the supernatant was recovered as nucleus lysates. Anti-NF kappa B p52 and p65 were purchased from Upstate Biotechnology. Anti-SP-1 was purchased from Santa Cruz Biotechnology (Santa Cruz, Calif.).
Cell lysates were prepared with radioimmunoprecipitation assay (RIPA) buffer (10 mM Tris [pH 7.4], 150 mM NaCl, 1% Triton X-100, 0.1% deoxycholate, 0.1% SDS, 5 mM EDTA), containing 1× complete protease inhibitor cocktail (Roche diagnostics), 1 mM sodium fluoride (NaF), and 1 mM sodium vanadate (Na3VO4). Lysates were normalized for total protein (25 μg) and subjected to SDS-PAGE (4-15% gradient gels, Bio-Rad, Hercules, Calif.) and immunoblot assay. We incubated the blots with secondary antibodies that were conjugated with horseradish peroxidase. Blots then were prepared for enhanced chemiluminescence (ECL) detection system (Amersham, Little Chalfont, United Kingdom) and subsequent autoradiography with Super RX film (Fuji, Tokyo, Japan).
For fractionation experiments, cells were collected by centrifugation and washed with PBS. The cell pellet containing 5×10^6 cells was suspended in 100 μl of hypotonic buffer (50 mM Tris [pH7.4], 5 mM EDTA, 10 mM NaCl, 0.05% Nonidet P40 [NP-40]), containing 1× complete protease inhibitor cocktail, 1 mM NaF, and 1 mM Na3VO4. After 10 minutes, the lysate was spun and the supernatant was collected as cytoplasmic lysates. […]

[3] = tested on: Mcl-1 in CLL B cells; experiment: Immunoblot of Mcl-1 expression in CLL B cells; conditions: short-term culture of isolated CLL B cells
Protocol: as §1

[4] = tested on: isolated CD19+ CLL B cells; experiment: Viability of isolated CLL B cells cultured without NLC (DiOC6/PI flow cytometry); conditions: rhBAFF 50 ng/ml, rhAPRIL 500 ng/ml; samples of 3 patients
Protocol: (§2) Freshly thawed CLL B cells were cultured at the concentration of 1×10^6/ml under various conditions. Determination of CLL cell viability in this study was based on the analysis of mitochondrial transmembrane potential (Δψm) using 3,3′-dehexyloxacarbocyamine iodine (DiOC6) and cell membrane permeability to PI, as described.22 For viability assays, 100 μl of the cell culture was collected at the indicated time points and transferred to polypropylene tubes containing 100 μl of 60 nmol/l DiOC6 (Molecular Probes) and 10 μg/ml PI in FACS buffer. The cells then were incubated at 37° C. for 15 minutes and analyzed within 30 minutes by flow cytometry using a FACSCalibur (Becton Dickinson). Fluorescence was recorded at 525 nm (FL-1) for DiOC6 and at 600 nm (FL-3) for PI.

[5] = tested on: NF-κB1 binding activity in CLL cells; experiment: Electrophoretic mobility shift assay of NF-κB DNA binding in nuclear extracts of CLL cells; conditions: rhBAFF 50 ng/ml or rhAPRIL 500 ng/ml, 24 hours
Protocol: Nuclear proteins were extracted using a nuclear extraction kit (Pierce, Rockford, Ill.) in presence of 1× complete protease inhibitor cocktail (Roche diagnostics). Total protein was measured using a modified Bradford test (Bio-Rad, Hercules, Calif.). 2 μg of nuclear protein extracts were incubated on ice for 30 min with antibodies to p50 and p65 (Santa Cruz Biotechnology). Later, a radiolabeled double stranded probe that encompassed the κB1 site was added, followed by incubation at room temperature for 30 min. Samples were loaded on a 6% acrylamide gel and run at 150 volts for three and a half hours.

[6] = tested on: p44/42 MAPK (ERK1/2) in CLL B cells; experiment: Immunoblot of ERK1/2 phosphorylation in CLL B cells; conditions: 3 or 10 minutes; SDF-1α 200 ng/ml, rhBAFF 50 ng/ml
Protocol: as §1

[7] = tested on: transfected CLL cells; experiment: Viability of CLL cells transfected with SR-IκBα or control vector (Amaxa nucleofection); conditions: rhBAFF 50 ng/ml or rhAPRIL 500 ng/ml for 24 hours, added four hours after transfection
Protocol: as §2, with “of 1×10^6/mL” for “of 1×10^6/ml”, “as described.” for “as described.22”, “of 80” for “of 60”, “and 2” for “and 10”
CLL cells were transfected using the Amaxa nucleofection technology (Amaxa). Cells were resuspended in solution from human B cell nucleofector kit, also available as part of Amaxa cell optimization kit, according to the manufacturer's instructions. Briefly, 100 μl of 5×10^6 cell suspension mixed with 5 μg cDNA was transferred to the provided cuvette and nucleofected with an Amaxa Nucleofector apparatus (Amaxa). Cells were transfected using the U-15 pulsing parameter and immediately transferred into wells containing 37° C. pre-warmed culture medium in 12-well plates. After transfection, cells were cultured from 4 to 48 hours before analyzing by FACS. pmaxGFP was used to gauge transfection efficiency.

[8] = tested on: NF-κB2/p100 pathway in CLL B cells; experiment: Immunoblot of alternative NF-κB2 pathway activation (p100 to p52, p52 nuclear translocation) in CLL B cells; conditions: concentrations that promote CLL cell survival; rhBAFF 50 ng/ml, rhAPRIL 500 ng/ml, 24 hours
Protocol: as §1
For fractionation experiments, cells were collected by centrifugation and washed with PBS. The cell pellet containing 5×10^6 cells was suspended in 100 μl of hypotonic buffer (50 mM Tris (pH7.4), 5 mM EDTA, 10 mM NaCl, 0.05% NP-40, 1 mM PMSF, 10 μg/ml Aprotinin, 10 μg/ml Leupeptin, 10 μg/ml Pepstatin, 10 mM β-Glycerophosphate, 1 mM Na-Vanadate, 1 mM NaF). After 10 minutes the lysate was spun and the supernatant was collected as cytoplasmic lysates. The pellet was washed 5 times in hypotonic buffer containing 0.1% NP-40. The remaining pellet was suspended in 100 μl RIPA buffer containing protease and phosphatase inhibitors. […]

[9] = tested on: Bcl-2, Bax, Bcl-xL in CLL B cells; experiment: Immunoblot of Bcl-2, Bax, Bcl-xL expression in CLL B cells; conditions: short-term culture of isolated CLL B cells
Protocol: as §1

Row | Substance | induction of phosphorylation/activation of AKT (Ser473) [1] | activation of classical/canonical NF-κB pathway (IκBα degradation, p65 translocation to nucleus) [2] | induction of Mcl-1 expression in CLL B cells [3] | viability of isolated CLL cells cultured without NLC versus control [4] | NF-κB consensus motif binding proteins in nuclear extracts (EMSA) [5] | induction of phosphorylation of ERK1/2 [6] | viability of CLL cells transfected with SR-IκBα [7] | viability of CLL cells transfected with control expression plasmid [7] | activation of NF-κB2 (processing of p100 to p52, translocation of p52 to the nucleus) [8] | changes in levels of Bcl-2, Bax, or Bcl-xL [9]
1 | rhAPRIL: recombinant human a proliferation-inducing ligand, purchased from Alexis Biochemicals | could not induce | induced degradation of the inhibitor of kappa B (IκBα) and translocation of p65 to the nuclear fraction; also recorded: induced translocation of p65 to the nucleus | induced to express increased levels of Mcl-1 | significant greater than that of control treated CLL cells; also recorded: significantly improved the viability of CLL cells | increased amounts of proteins capable of binding NF-κB consensus motifs | could not induce phosphorylation of p44/42 mitogen-activated phosphokinase (MAPK, ERK1/2) | had no effect on CLL cells transfected with SR-IκBα | significantly enhanced the viability of the cells transfected with the control expression plasmid | did not observe activation of NF-κB2; also recorded: did not observe translocation of p52 to the nucleus | –
2 | rhBAFF: recombinant human B cell-activating factor of the TNF family | could not induce | induced degradation of the inhibitor of kappa B (IκBα) and translocation of p65 to the nuclear fraction; also recorded: induced translocation of p65 to the nucleus | induced to express increased levels of Mcl-1 | significant greater than that of control treated CLL cells; also recorded: significantly improved the viability of CLL cells | increased amounts of proteins capable of binding NF-κB consensus motifs | could not induce phosphorylation of p44/42 mitogen-activated phosphokinase (MAPK, ERK1/2) | had no effect on CLL cells transfected with SR-IκBα | significantly enhanced the viability of the cells transfected with the control expression plasmid | could induce activation of NF-κB2; also recorded: could induce translocation of p52 to the nucleus | did not observe significant changes
